Data as given in patent US8729048B2, “Methods and materials for assessing responsiveness to PARP inhibitors and platinating agents” (Mayo Foundation for Medical Education and Research, priority 2011, dated 2014).

Key:
Assay type in all cases: cell-based
[1] = test system: HPRT locus in BRCA2-mutant CAPAN1 cells; assay: HPRT mutagenesis assay; conditions: 250 nM DNA-PKi, 72 hours
Method: FIG. 4. PARP inhibitor-induced chromosomal derangement and genomic instability is dependent on DNA-PK activity. (A) Representative images of metaphase spreads from cells treated with diluent (0.2% DMSO), 500 nM DNA-PKi, 2.5 μM ABT-888, or both ABT-888 and DNA-PKi for 72 hours. Chromosomal breaks are marked with arrowheads and radial structures are marked with asterisks. (B) Quantitation of data from (A) showing average radial chromosomes per cell (n=100 for each data point pooled from two separate experiments, error bars represent SEM). † indicate values that are zero. (C) Calculated mutagenesis frequency in BRCA2-mutant CAPAN1 cells after control treatment or exposure to ABT-888 with or without 250 nM DNA-PKi. Each bar represents the mean±SEM of 5-8 plates.
HPRT mutagenesis was performed as described elsewhere (Hashimoto et al., Clin. Cancer Res., 1:369-376 (1995)). […] Each sample group was trypsinized, replated at 10^6 cells/100-mm dish in medium E supplemented with 15 μM 6-TG, cultured until colonies were visible (14-21 days), and analyzed manually for colony formation. […] Mutagenesis frequencies were calculated by dividing the number of colonies on 6-TG-treated plates by the total number of possible colonies (10^6 cells×plating efficiency).

[2] = test system: BRCA2-positive PEO4 cells; assay: Clonogenic assay, PEO4; conditions: 72 hours
Method: FIG. 5. NHEJ is a major contributor to PARP inhibitor effects in BRCA2-deficient cells. (A) Western blots showing knockdown of Ku80 in PEO1 and PEO4 cells. (B) Clonogenic survival of PEO1 and PEO4 cells from (A), which were treated with the indicated ABT-888 concentration for 72 hours, washed, and allowed to form colonies. (C) Western blots following treatment with siRNA targeting luciferase (control), Ku80, PARP1, or both Ku80 and PARP1. (D) Clonogenic viability of PEO 1 and PEO4 cells from (C). Following knockdown, cells were plated onto triplicate plates and allowed to form colonies. (E) Clonogenic survival of PEO1 cells following Artemis knockdown. After treatment with the indicated siRNA, plates were treated with indicated concentration of ABT-888 for 72 hours, washed, and allowed to form colonies. Inset, Western blots showing knockdown using luciferase (control) or Artemis siRNAs in PEO1 cells. (F) Clonogenic survival of PEO1 and PEO4 cells treated for 72 hours with ABT-888 in combination with diluent or 500 nM DNA-PKi. All results are reported as means of triplicate plates±SEM, and are representative of 3 independent experiments.
Colony formation assays were performed on siRNA-transfected PEO1 and PEO4 cells 48 hours after the second transfection. Cells were trypsinized and plated at 750 cells/plate in triplicate 60-mm dishes containing medium A, allowed to grow 10-14 days, and stained with Coomassie Brilliant Blue. Colonies containing ≧50 cells were scored manually. To assess methyl methanesulfonate (MMS) sensitivity, PEO1 or PEO4 cells were incubated for 48 hours after the second siRNA treatment, plated onto 60-mm dishes, allowed to adhere for 4 hours, exposed to the indicated concentration of MMS (Sigma-Aldrich) for 1 hour, washed with sterile RPMI 1640, and allowed to grow into colonies in medium A. For drug treatment, cells (without siRNA) were allowed to adhere for 4-6 hours, then treated with the indicated concentrations of ABT-888 and/or AZ12594248 for 72 hours. […]

[3] = test system: parental M059J cells lacking DNA-PKcs; assay: Clonogenic assay, M059J; conditions: BRCA1 shRNA
Method: FIG. 6. […] (A) BRCA1-deficient HCC1937 and BRCA1-reconstituted HCC1937/BRCA1 cells were continuously exposed to ABT-888 in the presence or absence of 125 nM DNA-PKi and assayed for clonogenic survival. Inset, Western blots of cell lysates from HCC1937 and HCC1937/BRCA1. (B) Western blots of M059J and reconstituted M059J+DNA-PKcs lines showing the restoration of DNA-PK expression and the shRNA-mediated knockdown of BRCA1. (C) Clonogenic survival of shRNA transfected M059J/M059J+DNA-PKcs lines treated with ABT-888 for 72 hours. (D) Clonogenic survival of ATM-deficient GM16666 or ATM-reconstituted GM16667 fibroblasts. Cells were exposed to ABT-888 for 48 hours in the presence or absence of 250 nM DNA-PKi, washed, and allowed to form colonies. Inset, Western blots of lysates from GM16666 and GM16667 fibroblasts. […] Results are representative of 3 independent experiments.
All siRNA oligonucleotides were purchased from Ambion, Inc. (Austin, Tex.). Sequences, with references, are provided below. PEO1 and PEO4 cells were transfected with 150 picomoles of siRNA using the HiPerfect lipid transfection reagent (Qiagen; Valencia, Calif.). […]
Colony formation assays were performed on siRNA-transfected PEO1 and PEO4 cells 48 hours after the second transfection. […] Colonies containing ≧50 cells were scored manually. […]

Row | SMILES | effect of co-administration on PARP inhibitor-induced HPRT mutation frequency [1] | clonogenic survival [2] | clonogenic survival with ABT-888 after Ku80 knockdown ([2]; Ku80 siRNA) | clonogenic sensitivity to ABT-888 after BRCA1 knockdown [3]
1 | CCN1CCN(CC(=O)Nc2ccc(-c3cccc4c(=O)cc(N5CCOCC5)oc34)c3sc4ccccc4c23)CC1 [AZ 12594248] | markedly reduced the mutation frequency | – | – | –
2 | C[C@]1(c2nc3c(C(N)=O)cccc3[nH]2)CCCN1 [ABT-888] | – | resistant to the effects of ABT-888 | unaffected by Ku80 siRNA | not sensitized
